Assay results taken from patent US8821568B2, “Implant modified with non-hydroxylated vitamin D precursors” (Numat Biomedical S.L., priority 2008, dated 2014).

Tests used:
Format in all cases: cell-based, mouse
[1] = test system: MC3T3-E1 cells; assay: ALP activity in cell monolayer on coated titanium implants; conditions: Ti implants; day 21; UV-untreated; percentage of ethanol UV-untreated group set to 100%; mean±SEM
Method: (§1) To test the effect of the surface modification, 96-well plates were used. Ti disks were placed into the wells and treatments and UV-activation were performed over there. Cells grown onto untreated polystyrene tissue culture plastic (TCP) were added as a control for all the experiments. Cells were seeded at a density of 30,000 cells/cm^2 and they were maintained in α-MEM supplemented with 10% FCS and antibiotics. Culture media was collected after 48 hours, to test cytotoxicity and the production of the hydroxylated form of vitamin D, 25-D3. Cells were harvested after two days of culture using Trizol reagent (Roche Diagnostics, Mannheim, Germany), to analyze gene expression of several osteoblast differentiation markers and enzymes involved in vitamin D synthesis using real-time RT-PCR. On the other hand, MC3T3-E1 cells were harvested after 21 days to measure calcium content and ALP activity in the cell monolayer.
Cell monolayer was collected at 21 cell differentiation days and PBS 0.1% Triton X-100 was added to solubilize proteins. Cell lysates were put into freeze/thaw cycles (liquid nitrogen and 37° C. water bath) to improve protein recovery. After centrifugation at 33,000 g for 15 min at 4° C., supernatants acquired were assayed for ALP activity, calcium content and total protein determination. ALP activity was calculated by measuring the cleavage of p-Nitrophenyl Phosphate (pNPP) (Sigma, St. Louis, Mo., USA) in a soluble yellow end product which absorbs at 405 nm. A volume of 100 μl of this substrate was used in combination with 25 μl of each sample supernatant or standard point. The standard curve was prepared from calf intestinal alkaline phosphatase (CIAP, 1 U/μl) (Promega, Madison, Wis., USA) by mixing 1 μl from the stock CIAP with 5 ml of alkaline phosphatase buffer (1:5000 dilution), and then making 1:5 serial dilutions. Once the reaction was carried out, after 30 min in dark at room temperature, it was stopped with the addition of 50 μl of 3 M sodium hydroxide. At this point, absorbance was read at 405 nm.
Total protein was determined using a BCA protein assay kit (Pierce, Rockford, Ill., USA). For the analysis, cell supernatants were diluted 1:1 in PBS 0.1% Triton X-100. Standard curve and samples were analyzed as described by the manufacturer and reading the absorbance at 562 nm.

[2] = test system: MC3T3-E1 cells; assay: Calcium content (mineralization, ICP-AES) on coated titanium implants; conditions: Ti implants; 28 days; UV-untreated; data not shown
Method: as §1, with “On the other hand, MC3T3-E1 cells were harvested after 21 days to measure calcium content and ALP activity in the cell monolayer.” left out
[…] Cell lysates were put into freeze/thaw cycles (liquid nitrogen and 37° C. water bath) to improve protein recovery. […] ALP activity was calculated by measuring the cleavage of p-Nitrophenyl Phosphate (pNPP) (Sigma, St. Louis, Mo., USA) in a soluble yellow end product which absorbs at 405 nm. […] At this point, absorbance was read at 405 nm.
To determine calcium content samples were analyzed by inductively coupled plasma atomic emission spectrometry (Optima 5300 DV, PerkinElmer, Massachussetts, USA). […]

[3] = test system: MC3T3-E1 cells; assay: ELISA of 25-D3 and 1,25-D3 released to the culture media, plastic wells; conditions: TCP; 48 hours; 2×10^−2 nmols, not irradiated; mean±SEM
Method: (§2) To test the effect of the different treatments onto the plastic wells, 96-well plates made of polystyrene were used and the treatments with 7-DHC performed directly onto them. Cells grown onto untreated TCP were added as a control for all the experiments. Cells were seeded at a density of 30,000 cells/cm^2 and they were maintained in α-MEM supplemented with 10% FCS and antibiotics. Culture media was collected after 48 hours, to test cytotoxicity and the production of the hydroxylated forms of vitamin D. Cells were harvested after 2 days of culture using Trizol reagent (Roche Diagnostics, Mannheim, Germany), to analyse early gene expression response of several osteoblast differentiation markers and enzymes involved in vitamin D synthesis using real-time RT-PCR.
25-D3 and 1,25-D3 released to the culture media after two days of treatment were analyzed by enzyme-linked immunosorbent assay (ELISA). Aliquots from the culture media were centrifuged at 1800 rpm for 5 minutes at 4° C. and supernatants were used for 25-D3 and 1,25-D3 determination following instructions described by the manufacturer (Immunodiagnostic Systems Ltd, Boldon, Tyne and Wear, UK).

[4] = test system: MC3T3-E1 cells; assay: Real-time RT-PCR of vitamin D hydroxylation/degradation enzymes (CYP27A1, CYP27B1, CYP24A1), plastic wells; conditions: TCP, 2×10^−2 nmols, not irradiated
Method: as §2
(§3) RNA was isolated from cells using a monophasic solution of phenol and guanidine thiocyanate (Trizol, Roche Diagnostics, Mannheim, Germany) according to the manufacturer's protocol. RNA was quantified at 260 nm using a Nanodrop spectrophotometer (NanoDrop Technologies, Wilmington, Del., USA).
(§4) Total RNA previously isolated was reverse-transcribed to cDNA using High Capacity RNA to cDNA kit (Applied Biosystems, Foster City, Calif.) according to the protocol of the supplier. The same amount of total RNA from each sample was converted into cDNA. Each cDNA was diluted ¼ and aliquots were stored at −20° C. until the PCR reactions were carried out.
(§5) Real-time RT-PCR was performed for two reference genes: 18S ribosomal RNA (18S rRNA), glyceraldehyde-3-phosphate dehydrogenase (GAPDH), and 11 target genes alkaline phospathase (ALP), Interleukin 6 (IL-6), Collagen (Coll-1), Osteocalcin (OC), Bone Morphogenetic Protein 2 (BMP-2), Osterix (Osx), Receptor activator of nuclear factor kappa-B ligand (RANKL), Osteoprogesterin (OPG) and genes involved in vitamin D synthesis such as Vitamin D3 25-hydroxylase (CYP27A1), 25 hydroxyvitamin D3-1-alpha hydroxylase (CYP27B1) and 1,25-dihydroxyvitamin D3 24-hydroxylase (CYP24A1).
Real-time PCR were performed in the Lightcycler 480® (Roche Diagnostics, Germany). […] After each cycle, fluorescence was measured at 72° C. […]
(§6) To allow relative quantification after PCR, real-time efficiencies were calculated from the given slopes in the LightCycler 480 software (Roche Diagnostics, Mannheim, Germany) using serial dilutions. Relative quantification after PCR was calculated by normalizing target gene concentration in each sample by the concentration mean of the two reference genes in given sample using the “advanced relative quantification method” provided by the LightCycler 480 analysis software.

[5] = test system: MC3T3-E1 cells; assay: Real-time RT-PCR of bone markers, plastic wells; conditions: TCP; 2 days; 2×10^−2 nmols, not irradiated, compared to control
Method: as §2, §3, §4, §5
(§7) Real-time PCR were performed in the Lightcycler 480® (Roche Diagnostics, Germany). Each reaction contained 5 μl of LightCycler-FastStart DNA Master^PLUS SYBR Green I (Roche Diagnostics, Mannheim, Germany), 0.5 μM of the sense and antisense specific primers (Table 1) and 3 μl of the cDNA dilution in a final volume of 10 μl. The normal amplification program consisted of a preincubation step for denaturation of the template cDNA (10 min 95° C.), followed by 45 cycles consisting of a denaturation step (10 s 95° C.), an annealing step (10 s 60° C., except for ALP that was 10 s at 65° C., OSX with 10 s at 68° C. and CYP24A1 at 58° C. 10 s) and an extension step (10 s 72° C.). After each cycle, fluorescence was measured at 72° C. Every run included a negative control without cDNA template. To confirm amplification specificity, PCR products were subjected to a melting curve analysis on the LightCycler and subsequently 2% agarose/TAE gel electrophoresis, Tm and amplicon size, respectively.
as §6

[6] = test system: MC3T3-E1 cells; assay: Real-time RT-PCR of osteoblast differentiation markers, coated titanium implants; conditions: Ti implants; 48 h; 2×10^−2 nmols, no UV, compared to control
Method: as §1, §3, §4
as §7, with “Real-time RT-PCR was performed for two reference genes: 18S ribosomal RNA (18S rRNA), glyceraldehyde-3-phosphate dehydrogenase (GAPDH); and eleven target genes: alkaline phosphathase (ALP), Interleukin 6 (IL-6), Collagen (Coll-1), Osteocalcin (OC), Bone Morphogenetic Protein 2 (BMP-2), Osterix (Osx), Receptor activator of nuclear factor kappa-B ligand (RANKL), Osteoprogesterin (OPG) and genes involved in vitamin D synthesis such as Vitamin D3 25-hydroxylase (CYP27A1) and 25 hydroxyvitamin D3-1-alpha hydroxylase (CYP27B1). Real-time” for “Real-time”, “C.)” for “C. and CYP24A1 at 58° C. 10 s)”
To allow relative quantification after PCR, real-time efficiencies were calculated from the given slopes in the LightCycler 480 software (Roche Diagnostics, Mannheim, Germany) using serial dilutions. Relative quantification after PCR was calculated by normalizing target gene concentration in each sample by the concentration mean of the two reference genes in given sample using the Advanced relative quantification method provided by the LightCycler 480 analysis software.

## C=C1CC[C@H](O)C/C1=C/C=C1\CCC[C@]2(C)[C@@H]([C@H](C)CCCC(C)(C)O)CC[C@@H]12 [25-D3, 25-hydroxyvitamin D3, reference compound]
[1]
  ALP activity: 77.40±13.40%
[2]
  Calcium levels: trend to increased calcium levels
[3]
  1,25-D3 detected in culture media: 42 ± 4 pmol/L
  25-D3 released to culture media: 415 ± 20 nmol/L
[4]; 48 h
  CYP27B1 mRNA expression: not statistically different
[4]; 2 days, data not shown
  CYP24A1 mRNA levels: only detected
[5]
  IL-6 expression levels: significantly higher expression levels

## C=C1CC[C@H](O)C/C1=C/C=C1\CCC[C@]2(C)[C@@H]([C@H](C)CCCC(C)C)CC[C@@H]12 [D3, cholecalciferol, reference compound]
[1]
  ALP activity: 35.28±4.23%
[6]
  RANKL gene expression: Statistical significances
[3]
  1,25-D3 detected in culture media: 19.7 ± 0.7 pmol/L
  25-D3 released to culture media: 9.1 ± 1.9 nmol/L
